According to ChEMBL document CHEMBL5528066, “Discovery of Novel N-(Anthracen-9-ylmethyl) Benzamide Derivatives as ZNF207 Inhibitors Promising in Treating Glioma” (J Med Chem, 2024):

Columns and labels:
[1] = test system: U-251; assay: Inhibition of sphere formation in human U-251MG cells incubated for 168 hrs by microscopic analysis; format: functional, cell-based; settings: U-251, 168 h
[2] = Drug concentration in male Sprague-Dawley rat stomach at 45 mg/kg, po measured after 8 hrs by LC-MS/MS analysis; format: ADME, organism-based; settings: read-out: Ct
[3] = test system: MDR1; assay: Apparent permeability across apical to basolateral side in MDCKII-MDR1 cells at 1 uM incubated for 2 hrs by LC-MS/MS analysis; format: ADME, cell-based, Canis lupus familiaris; settings: dog, MDCK-MDR1
[4] = Toxicity in female C57BL/6 mouse assessed as change in cellular structure of lung at 45 mg/kg, po administered once a day for 2 weeks by H and E staining based analysis; format: organism-based; settings: in vivo, 336 h

`N#CC1(C(=O)NCCC2CCN(Cc3ccccc3)CC2)CC2(Br)c3ccccc3C1c1ccccc12` (racemic) gave an IC50 [1] of 870 nM, a concentration at 8 h [2] of 608 ng/g and a Papp A→B at 2 h, 1 µM [3] of 1.26 ×10⁻⁶ cm/s. The Activity [4] was “Non-Toxic”.
